Test results reported in patent US20170226145A1, “METHODS OF EXTRACTION AND PURIFICATION FROM STEVIA REBAUDIANA OF COMPOSITIONS WITH ENHANCED REBAUDIOSIDE-M CONTENT, USES OF SAID COMPOSITION AND NATURAL SWEETENER COMPOSITIONS WITH SAID COMPOSITION” (GLG LIFE TECH CORPORATION, priority 2014, published 2017).

Legend:
[1] = Heat and pH stability; format: physicochemical; settings: RM obtained in accordance with the invention
[2] = Solubility in water and solvents; format: physicochemical
[3] = Sweetness relative to sucrose (general statements, Table 1)
Source text: The physical and sensory properties are well studied generally only for Stevioside (STV) and Rebaudioside A. The sweetness potency of Stevioside is around 210 times higher than sucrose, Rebaudioside A is between 200 and 400 times, and Rebaudioside C is between 40 and 50 times and Dulcoside A around 30 times. Traditionally, Rebaudioside A is considered to have the most favorable sensory attributes of the four major steviol glycosides (see Table 1): […]

[4] = glycosides of wild type stevia; cited from earlier work
[5] = Example 8 sample test results of sweetener solutions (Table 2)
Source text: Reb M 95, Reb C 85, Reb D 95, Reb A 97, Sucrose, New Blends RA97 and RM95, New Blends RA97, RM95 and RC85, New Blends RM95, RA97 and Sucrose, New Blends RM95, RA97 and Erythritol, Purified Water. [table]

For C=C1C[C@@]23CC[C@H]4[C@@](C)(CCC[C@@]4(C)C(=O)O[C@@H]4O[C@H](CO)[C@@H](O)[C@H](O[C@@H]5O[C@H](CO)[C@@H](O)[C@H](O)[C@H]5O)[C@H]4O[C@@H]4O[C@H](CO)[C@@H](O)[C@H](O)[C@H]4O)[C@@H]2CC[C@]1(O[C@@H]1O[C@H](CO)[C@@H](O)[C@H](O[C@@H]2O[C@H](CO)[C@@H](O)[C@H](O)[C@H]2O)[C@H]1O[C@@H]1O[C@H](CO)[C@@H](O)[C@H](O)[C@H]1O)C3 [RM, Rebaudioside M], the “heat and pH stability” value [1] was “heat and pH-stable”, the “solubility in acetone, benzene, chloroform, and ether” value [2] was “insoluble” and the “solubility in diluted solutions of methanol, ethanol, n-propanol, and isopropanol” value [2] was “soluble”. For the same compound, the “solubility of RM in water” value ([2]; increases with an increase in temperature) was “around 0.3%”, the “times sweeter than sugar” value ([3]; compared to a 10% sucrose solution) was “about 200 times” and the “times sweetness of sucrose” value ([3]; purified Reb M of the invention) was “more than 300 times”.

In the case of C=C1C[C@@]23CC[C@H]4[C@@](C)(CCC[C@@]4(C)C(=O)O[C@@H]4O[C@H](CO)[C@@H](O)[C@H](O)[C@H]4O)[C@@H]2CC[C@]1(O[C@@H]1O[C@H](CO)[C@@H](O)[C@H](O[C@@H]2O[C@H](CO)[C@@H](O)[C@H](O)[C@H]2O)[C@H]1O[C@@H]1O[C@H](CO)[C@@H](O)[C@H](O)[C@H]1O)C3 [Rebaudioside A], the “sweetness, × of sugar” value [4] is given as 350-450 × of sugar.

In the case of C=C1C[C@@]23CC[C@H]4[C@@](C)(CCC[C@@]4(C)C(=O)O[C@@H]4O[C@H](CO)[C@@H](O)[C@H](O)[C@H]4O)[C@@H]2CC[C@]1(O[C@@H]1O[C@H](CO)[C@@H](O)[C@H](O)[C@H]1O[C@@H]1O[C@H](CO)[C@@H](O)[C@H](O)[C@H]1O)C3 [Stevioside], the “sweetness, × of sugar” value [4] is listed as 250-300 × of sugar.

For OC[C@H]1O[C@@](CO)(O[C@H]2O[C@H](CO)[C@@H](O)[C@H](O)[C@H]2O)[C@@H](O)[C@@H]1O [Sucrose], the Content/100 ml ([5]; amount per 100 ml in the solution that has sweetness 9° (9 g sucrose)) was 9 g and the “Sweetness of Solution” value ([5]; solution at the Content/100 ml of Table 2) was 9°.

For Rebaudioside C, the “sweetness, × of sugar” value [4] is listed as 40-50 × of sugar.
